The nature of data set [1]: Slurry conversion of polymorphic forms / thermodynamic stability comparison.
Data set [2] is described as follows: Stability test under high humidity condition (>90% RH, 5 days), analyzed by XRPD. The conditions noted are these: 500 mg.

Each structure is given as a SMILES string. “Also recorded” adds a separate entry of the source.

As for `O=C([O-])c1ccccc1.[Na+]` [sodium benzoate from Formosa Laboratories], the “Thermodynamic stability among forms of sodium benzoate” value in data set [1] was “less thermodynamically stable”. Also, the “Change of XRPD pattern” value in data set [2] is “significant changes; also recorded: changes in XRPD”.
As for `O=C([O-])c1ccccc1.[Na+]` [sodium benzoate from Merck, sodium benzoate], the “Thermodynamic stability among forms of sodium benzoate” value in data set [1] is “less thermodynamically stable”. Moreover, the “Change of XRPD pattern” value in data set [2] was “significant changes; also recorded: changes in XRPD”.
